≈ marks a conversion by molar mass, not a printed value.
Assays:
[1] = Estimated solubility of lenalidomide in solvents at ambient temperature (aliquot addition, visual inspection); format: physicochemical; conditions: organic solvent or mixture, thermodynamic from solid
Experimental: Solubility was estimated by treating a weighed sample of lenalidomide with measured aliquots of the test solvent at ambient temperature, with shaking and/or sonication between aliquots. Dissolution was determined by visual inspection. Solubility numbers were calculated by dividing the total amount of solvent used to dissolve the sample by the weight of the sample. The actual solubilities may be greater than the numbers calculated because of the use of solvent aliquots that were too large or because of slow dissolution rates. […] The solubility number is expressed as “greater than” if dissolution occurred on addition of the first solvent aliquot.

[2] = tested on: cells derived from patients with multiple myeloma and del (5q) myelodysplastic syndromes; conditions: cells from patients with multiple myeloma and del (5q) MDS; cited from earlier work
[3] = tested on: hematopoietic tumor models, including multiple myeloma; conditions: some in vivo nonclinical hematopoietic tumor models; cited from earlier work
[4] = tested on: tumor necrosis factor alpha (TNF-α); conditions: peripheral blood mononuclear cells; cited from earlier work
cyclooxygenase-2 (COX-2) = conditions: in vitro; cited from earlier work
COX-1 = conditions: in vitro; cited from earlier work

solubility ([1]; acetone): 2200 µg/mL (≈ 8.49 mM) | solubility ([1]; acetonitrile): 3400 µg/mL (≈ 13.1 mM) | solubility ([1]; methanol): 2600 µg/mL (≈ 10 mM) | solubility ([1]; tetrahydrofuran): 3000 µg/mL (≈ 11.6 mM)
SMILES: Nc1cccc2c1CN(C1CCC(=O)NC1=O)C2=O (stereo not drawn) [Lenalidomide, 3-(4-amino-1-oxo-1,3-dihydro-isoindol-2-yl)-piperidine-2,6-dione]
Growth of cells in vitro [2]: inhibits the growth | Tumor growth [3]: delay in tumor growth | Secretion of TNF-α [4]: inhibits the secretion | Expression of COX-2 (cyclooxygenase-2 (COX-2)): inhibited the expression | Expression of COX-1 (COX-1): not
